The record followed here is US20060135765A1, “Antineoplastic ether lipid compounds” (priority 2003, published 2006).

Data set [1] concerns A549. As to the kind of experiment: In vitro growth inhibition (SRB), A549. The format is cell-based, human. As to conditions: A549 tumor cell line; 3 days. The source says: (§1) III. In Vitro Growth Inhibition (GI50) A. Cell line maintenance The following cell lines were selected from the cell bank for screening and GI50 studies: MCF-7: human breast tumor, MCF-7/ADR: MCF-7 adriamycin resistant subline, HT-29: human colon carcinoma, A-549: human non-small cell lung cancer, NIH-3T3: mouse Swiss embryo fibroblast and WI-38: human lung fibroblast, SKMEL-28: human melanoma, Lewis Lung: mouse lung carcinoma, DU-145: prostate carcinoma, B16F10: mouse melanoma, L1210: murine lymphocytic leukemia, P-388: murine leukemia, U-937: human histolytic lymphoma. […]
(§2) The test compounds were made in-house and the compounds were dissolved PBS or saline at a stock concentration of approximately 20 mM, which is 400 times the desired final maximum test concentration. […] After 3 days of incubation, cell growth was determined.
(§3) The SRB assay was performed as described by Monks, A., Scudiero, D., Skehan, P., Shoemaker, R., Paull, K., Vistica, D., Hose, C., Langley, J., Cronise, P., and Vaigro-Wolff, A. Feasibility of a high-flux anticancer drug screen using a diverse panel of cultured human tumor cell lines. […] Bound SRB was solubilized with Tris buffer (10 mM), and the ODs were read using an automated plate reader (Bio-Rad, Model 3550-UV) at 490 nm. Background values were subtracted from the test data, and the data was calculated as a % of control. […]

Data set [2] concerns Whole Human Blood. The data set is described as follows: Hemolysis assay with whole human blood. Type of data set: cell-based. The method, then: Venous blood was collected in 10 mL Vacutainer tubes containing EDTA using a 21G needle or larger.
stock solutions of 20 mM test sample in phosphate buffered saline (PBS) were prepared as follows:
Then 270 uL of whole blood was aliquotted in duplicate mini test tubes using positive displacement pipet. Next, 30 uL of each working stock solution, in duplicate, was added to the whole blood. Next, 30 uL of PBS was added for background control. The samples were capped or sealed with Parafilm and gently mixed. The blood was incubated at 37° C. in gentle rotating water bath for 30 minutes. Final concentration of test sample was 10% of working stock solution.
Total hemolysis samples of 1% and 10% whole blood samples in deionized water were prepared as follows: 1:100=10 uL whole blood+990 uL deionized water 1:10=100 uL whole blood+900 uL deionized water
The samples were freeze thawed 3× in liquid nitrogen then water bath. The samples were then centrifuged 10 minutes at 1500 RPM. Next, 100 uL of supernatant was transferred to a cuvette and […] deionized water was added. The absorbance was read at 550 nm vs. water blank.
H10 and H50 were calculated by graphing Percent Total Hemolysis vs. Test Sample Concentration. The Percent Total Hemolysis=(average o.d of test sample)/(average o.d. of total hemolysis sample)×100

Data set [3] relates to HT29. The data set is described as follows: In vitro growth inhibition (SRB), HT29. The format is cell-based, human. Particulars: HT29 tumor cell line; 3 days.
From the text: as §1, §2, §3

The test system of data set [4] is platelets in dog whole blood. The data set is described as follows: Platelet aggregation in dog whole blood (whole blood aggregometer).
Description: Briefly, whole citrated blood is diluted 1:2 with sterile saline and placed in a warm chamber with a mini stir bar. An electronic probe, measuring electrical resistance, is inserted in the sample. The aggregometer is calibrated and the baseline is observed to detect any spontaneous aggregation. The test sample is added and allowed to run for at least 6 minutes. If the sample is an agonist the platelets will start to aggregate and stick to the electronic probe causing resistance across the electrodes to increase. This resistance, in ohms, is measured 6 minutes post addition of sample. The test samples are run at 25, 100, 200, 400 and 800 uM and compared to 100 uM L-ET-18-OCH3.
Collection of Blood Sample for in vitro Platelet Aggregation Testing: Venous blood is collected in 4.5 mL Vacutainer tubes containing 0.129 M sodium citrate using a 21G needle or larger. Blood is immediately mixed by gentle inversion 15-20 times and kept at room temperature. Dilution ratio is 1 to 9 (3.8% citrate solution:blood). One (2.0 mL) Vacutainer tube containing EDTA is also collected for platelet counts. Complete blood counts (CBC) are measured on the CDC Technologies Hemavet 1500 to ensure that the test subject's platelets are within normal range. Any vials of hemolytic blood or blood containing any clots should be discarded. Platelet aggregation testing must be completed within 3 hours of blood collection. After this time the ability of platelets to aggregate decreases.
Cloudy solutions were warmed to 50° C. to dissolve and particles. Dilutions were prepared in PBS or saline at 40× concentration. (25 uL test sample are added to 1000 uL diluted blood (1:40)).
Procedure for in vitro Platelet Aggregation Test using CH NO-LOG Aggregometer Model 560-CA: The following protocol was used:
Data set [5] relates to MCF7/ADR. The data set is described as follows: In vitro growth inhibition (SRB), MCF7/ADR. Particulars: MCF7/ADR tumor cell line; 3 days. The format is cell-based, human.
From the text: as §1, §2, §3

The subject of data set [6] is NIH-3T3. As to the kind of experiment: In vitro growth inhibition (SRB), NIH-3T3 normal fibroblasts. The format is cell-based, mouse. Particulars: NIH-3T3 normal cell line; 3 days.
From the text: as §1, §2, §3

For data set [7], the system named is WI38. As to the kind of experiment: In vitro growth inhibition (SRB), WI-38 normal fibroblasts. Type of data set: cell-based, human. Particulars: WI38 normal cell line; 3 days.
From the text: as §1, with “lymphoma. Except HT-29, WI-38, NIH-3T3 and Lewis Lung which were obtained from the American Type Culture Collection (Rockville, Md.) all the other cell lines were obtained from National Cancer Institute—Frederick Research Facility (Frederick, Md.).” for “lymphoma.”
as §2
The SRB assay was performed as described by Monks, A., Scudiero, D., Skehan, P., Shoemaker, R., Paull, K., Vistica, D., Hose, C., Langley, J., Cronise, P., and Vaigro-Wolff, A. Feasibility of a high-flux anticancer drug screen using a diverse panel of cultured human tumor cell lines. […] Bound SRB was solubilized with Tris buffer (10 mM), and the ODs were read using an automated plate reader (Bio-Rad, Model 3550-UV) at 490 nm. Background values were subtracted from the test data, and the data was calculated as a % of control. […] Percentage growth was calculated as described by Peters, A. C, Ahmad, L, Janoff, A. S., Pushkareva, M. Y., and Mayhew, E. Growth Inhibitory efects of liposome-associated 1-o-octadecyl-2-o-metlryl-sn-glycero-3-phosphocholine. […]

Data set [8] concerns DEVDase activity in Jurkat T Cells. The data set is described as follows: DEVDase activity in Jurkat T cells. Type of data set: cell-based. The method, then: Suspension cells were seeded at density 3.2×10^5 cells per mL in RPMI-1640 medium (Bio-Whittaker) supplemented with 10% heat inactivated FBS (Bio-Whittaker). Cells were pre-incubated overnight prior to treatment with the ether lipid compounds of the invention. At treatment time cell density was 5×10^5 cells per mL. Cells were incubated with the ether lipid compounds of the invention for various periods of time, usually 6 hours. Cells were collected, washed with 1×DPBS and resuspended in 110 μl of Buffer A (10 mM HEPES-KOH, pH 7.4, 2 mM EDTA, 0.1% CHAPS, 5 mM DTT, 1:100 dilution of protease inhibitors cocktail (SigmaYDTT and protease inhibitors should be added just before use). After 10 min incubation on ice in order to lyse cells, samples were frozen on dry ice/ethanol and kept at −20° C. until analysis. […] At the time of analysis of DEVDase activity frozen pellets were kept on ice until thawed and after vigorous vortexing samples were centrifuged at 14,000 rpm for 6 min. Supernatant was transferred into another tube and 2 μl, in triplicates, were used for protein measurement using Bradford reagent (Bio-Rad).
Measurement of DEVDase activity was carried out in 100 μl volume, where 10 μg of protein was delivered in 50 μl of Buffer A and 40 μM of substrate Ac-DEVD-AMC was also delivered in 50 μl of Buffer A. All measurements were done in triplicates. Reaction was carried out for 1 hour and generation of fluorescent product of reaction (aminomethylcoumarin) was measured by reading fluorescence at 1em 460 nm (1ex 360 nm). Changes in DEVDase activity were calculated after subtraction of background fluorescence of substrate incubated without proteins, and were expressed as percent of control (DEVDase activity in untreated cells). Average of DEVDase activity, calculated from few independent experiments, was used to calculate percent of L-ether lipid-induced DEVDase activity.

The subject of data set [9] is Washed Human RBCs. The data set is described as follows: Hemolysis assay with washed human red blood cells. The format is cell-based. The procedure:
Venous blood was collected in 10 mL Vacutainer tubes containing EDTA using a 21G needle or larger. […] The blood was transferred from 1 EDTA tube to a 50 mL conical tissue culture tube and the volume was brought up to 50 mL with PBS.
The blood was centrifuged for 10 minutes at 1500 RPM. The supernatant was removed and the blood was resuspended up to 50 mL with PBS. Next the blood was centrifuged for 10 minutes at 1500 RPM.
The supernatant was removed, and 2.0 mL of packed red blood cells was carefully transferred, using positive displacement pipet, into a fresh conical tissue culture tube. Next, 48 mL PBS was added to achieve a 4% washed RBC solution.
Next, 25, 50, 100 and 200 uM stock solutions of test sample in phosphate buffered saline (PBS) as follows:
Next, 0.5 mL of 4% washed RBC was added to 0.5 mL test sample dilutions (in duplicate). The final concentration of test sample was 50% of working stock solution.
The samples were capped or sealed with Parafilm and the samples were gently mixed. The blood was incubated at 37° C. in gentle rotating water bath for 30 minutes. The samples were centrifuged for 10 minutes at 1500 RPM. Next, 200 uL of supernatant was transferred to a cuvette and 1 mL deionized water was added. Absorbance was measured at 550 nm vs. a water blank. Next, H10 and H50 were determined by graphing Absorbance vs. Test Sample Concentration.

The subject of data set [10] is MCF7. As to the kind of experiment: In vitro growth inhibition (SRB), MCF7. The format is cell-based, human. As to conditions: MCF7 tumor cell line; 3 days.
From the text: as §1, §2, §3

In data set [11] the test system is RPMI-8226. The data set is described as follows: NCI screen, RPMI-8226. Type of data set: cell-based, human. Particulars: leukemia panel. The method, then:
(§4) Candidates deemed suitable for in vivo testing were then synthesized in large scale quantities and some of this material was sent to the NCI's Developmental Therapeutics Program for a battery of growth inhibitory studies against various human tumor cell lines (60 cell lines, 9 different panels). The remainder of the material was used to assess in vivo efficacy using murine tumor models. Additionally, studies were conducted on the lead candidates to discern mechanism of action with particular emphasis on these agents apoptotic ability as measured by caspase 3 activity. The details (materials and methods) for these various assays are described further in the following discussion.
(§5) Ten compounds were also sent to NCT's Drug Discovery Program for screening against numerous human tumor cell lines (9 panels total: renal ovarian, colon, CNS, non-small cell lung, leukemia, breast, melanoma, and prostate). The data are shown in FIGS. 2a-i which also include data regarding D- and L-ET-18-OCH3 (listed as L-EL and D-EL in the figures).

For data set [12], the system named is K-562. The data set is described as follows: NCI screen, K-562. The format is cell-based, human. Particulars: leukemia panel. The method, then:
as §4, §5

Data set [13] has as its system human umbilical vein endothelial cell (HUVEC) line. As to the kind of experiment: In vitro growth inhibition, HUVEC. The format is cell-based.
Setting [14] is: concentration producing 10% hemolysis.
Where [15] appears, read: concentration producing 50% hemolysis.

The structures appear in SMILES notation. Where “and” joins values, the source holds several entries; their conditions need not be identical. Equal values may be shown once. Read-outs that look alike come from different tables or passages of the source.

On to `CCCCCCCCCCCCCCCCCCOCC(CCP(=O)([O-])OCCC[N+](C)(C)C)OC` [2(S), 3′-Trimethylaminopropyl-1-O-octadecyl-2-O-methylbutane-4-phospbonate], for which the GI50 (usually the concentration that inhibits growth by half) in [1] was 7.2 µM; in [3], 4.8 µM; in data set [5], over 40 µM; in data set [6], 33.5 µM and 33.6 µM; in data set [7], under 4 µM; in data set [10], 34.8 µM. In addition, the H10 in data set [2] (setting [14]) is 400 µM; in data set [9] (setting [14]), 14 µM and 8 µM. Besides, the H50 in data set [2] (setting [15]) is over 2000 µM; in data set [9] (setting [15]) it was 21 µM and 11 µM. Further, the “platelet aggregation response (in words)” value in data set [4] is recorded as “no aggregation was noted”; in data set [4] (listed as 2) it was “did not evoke a platelet aggregation response”. Also, the “Relative Platelet Aggregation (Ohms)” value in [4] (25 μM), in data set [4] (100 μM), in data set [4] (200 μM), in data set [4] (400 μM) and in data set [4] (800 μM) was 0 Ohms each time. The “% L-ET18OCH3 (DEVDase, 6 hrs)” value in [8] ([ether lipid] 10 μM) was found to be 57.2 ± 8.4 % L-ET18OCH3; in data set [8] ([ether lipid] 20 μM), 70.6 ± 10.8 % L-ET18OCH3; in data set [8] ([ether lipid] 30 μM) it was 76.8 ± 11.1 % L-ET18OCH3.

For the molecule `CCCCCCCCCCCCCCCCCCOCC(COP(=O)([O-])OCC[N+](C)(C)C)OC` [D-ET18OCH3, 1-O-octadecyl-2-O-methyl-glycerophosphocholine], the “activity against RPMI-8226 (in words)” value in [11] is listed as “extremely poor activity”. The “activity against K-562 (in words)” value in [12] is “extremely poor activity”. Also, the GI50 in data set [7] is 10 to 13 µM. For the same molecule, the “% L-ET18OCH3 (DEVDase, 6 hrs)” value in [8] ([ether lipid] 10 μM) is recorded as 79.3 ± 9.7 % L-ET18OCH3; in data set [8] ([ether lipid] 20 μM) it was 89.2 ± 12.2 % L-ET18OCH3; in [8] ([ether lipid] 30 μM), 92.1 ± 11.8 % L-ET18OCH3.

In the case of `CCCCCCCCCCCCCCCCCCOCC(COP(=O)([O-])OCC[N+](C)(C)C)OC` [L-ET18OCH3, 1-O-octadecyl-2-O-methyl-glycerophosphocholine], the GI50 was 1200 nM in data set [13] and 10 to 12 µM in data set [7]. The “% L-ET18OCH3 (DEVDase, 6 hrs)” value in [8] ([ether lipid] 10 μM) is reported as 100 ± 8.8 % L-ET18OCH3; in data set [8] ([ether lipid] 20 μM), 100 ± 10.4 % L-ET18OCH3; in [8] ([ether lipid] 30 μM), 100 ± 9.3 % L-ET18OCH3.
